Test results reported in the supplement of paper PMC10307832.

What was measured:
Test in all cases: relative viability (nuclei count vs DMSO), 5 days (fraction); higher = more cells survive
Metformin + AZD7762 = compound: CN(C)C(=N)NC(=N)N [Metformin] + NC(=O)Nc1cc(-c2cccc(F)c2)sc1C(=O)N[C@H]1CCCNC1 [AZD7762] (partner 0.2 µM)
Procedure, shortened: (§1)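 Lung cancer cell lines in 1536-well plates were dosed by pin tool the day after seeding, either with one drug alone or with a fixed anchor-drug dose plus five library-drug doses (not always all listed) in √10 steps. After 5 days, cells were fixed and their nuclei stained in one step (final 0.05% Triton X-100, 1% formaldehyde, 1 ug/ml Hoechst), then counted on 4× images. Relative viability is the nuclei count in treated wells divided by that in vehicle wells. Values are medians of duplicate plates.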

Apatinib + Foretinib = compound: N#CC1(c2ccc(NC(=O)c3cccnc3NCc3ccncc3)cc2)CCCC1 [Apatinib] + COc1cc2c(Oc3ccc(NC(=O)C4(C(=O)Nc5ccc(F)cc5)CC4)cc3F)ccnc2cc1OCCCN1CCOCC1 [Foretinib] (partner 0.25 µM)
Procedure, shortened: as §1

Metformin + Olaparib = compound: CN(C)C(=N)NC(=N)N [Metformin] + O=C(c1cc(Cc2n[nH]c(=O)c3ccccc23)ccc1F)N1CCN(C(=O)C2CC2)CC1 [Olaparib] (partner 8 µM)
Procedure, shortened: as §1

Apatinib + Crizotinib = compound: N#CC1(c2ccc(NC(=O)c3cccnc3NCc3ccncc3)cc2)CCCC1 [Apatinib] + C[C@@H](Oc1cc(-c2cnn(C3CCNCC3)c2)cnc1N)c1c(Cl)ccc(F)c1Cl [Crizotinib] (partner 1 µM)
Procedure, shortened: as §1

Cell Line	relative viability (Metformin + AZD7762; first compound 10 µM)	relative viability (Metformin + AZD7762; first compound 31.62 µM)	relative viability (Metformin + AZD7762; first compound 100 µM)	relative viability (Metformin + AZD7762; first compound 316.23 µM)	relative viability (Metformin + AZD7762; first compound 1000 µM)	relative viability (Apatinib + Foretinib; first compound 0.08 µM)	relative viability (Apatinib + Foretinib; first compound 0.253 µM)	relative viability (Apatinib + Foretinib; first compound 0.8 µM)	relative viability (Apatinib + Foretinib; first compound 2.53 µM)	relative viability (Apatinib + Foretinib; first compound 8 µM)	relative viability (Metformin + Olaparib; first compound 10 µM)	relative viability (Metformin + Olaparib; first compound 31.62 µM)	relative viability (Metformin + Olaparib; first compound 100 µM)	relative viability (Metformin + Olaparib; first compound 316.23 µM)	relative viability (Metformin + Olaparib; first compound 1000 µM)	relative viability (Apatinib + Crizotinib; first compound 0.08 µM)	relative viability (Apatinib + Crizotinib; first compound 0.253 µM)	relative viability (Apatinib + Crizotinib; first compound 0.8 µM)	relative viability (Apatinib + Crizotinib; first compound 2.53 µM)	relative viability (Apatinib + Crizotinib; first compound 8 µM)
NCI-H647	0.414	0.467	0.495	0.418	0.513	1.14	1.39	1.16	1.13	0.977	0.375	0.394	0.415	0.44	0.375	1.18	1.23	1	0.846	0.737
NCI-H661	–	–	–	–	–	1	0.93	1.04	1.02	0.941	0.648	0.718	0.715	0.694	0.711	1.02	1.03	1.02	0.934	0.916
HCC-366	0.233	0.299	0.362	0.265	0.371	0.977	0.904	0.966	0.93	0.963	0.255	0.21	0.213	0.203	0.213	0.437	0.587	0.605	0.466	0.547
HOP-62	0.248	0.41	0.416	0.325	0.492	1.15	1.18	1.11	1.1	0.848	0.189	0.2	0.189	0.251	0.221	0.989	–	0.868	0.935	0.654
A549	–	–	–	–	–	0.945	0.933	1	0.887	0.855	0.281	0.308	0.324	0.269	0.368	0.818	0.917	0.737	0.61	0.56
HCC-827	0.245	0.174	0.257	0.217	0.36	1.05	1.04	1.01	1	0.763	0.487	0.366	0.484	0.415	0.424	0.969	0.887	0.767	0.83	0.575
NCI-H1395	0.415	0.389	0.41	0.428	0.41	1.02	1.01	1.04	0.99	1.02	0.386	0.428	0.455	0.42	0.417	–	–	–	–	–
SK-MES-1	–	–	–	–	–	1.02	0.935	0.967	0.838	0.896	0.305	0.352	0.406	0.381	0.363	0.983	0.937	0.897	0.955	0.796
NCI-H2023	–	–	–	–	–	0.963	0.751	0.849	1.02	0.794	0.332	0.366	0.282	0.344	0.31	0.717	0.737	0.69	0.699	0.643
NCI-H1299	–	–	–	–	–	1.14	1.13	1.09	1.09	0.941	0.867	0.924	0.941	0.873	0.933	0.998	0.974	0.517	0.961	0.77
LCLC-97TM1	0.205	0.244	0.205	0.27	0.306	0.907	0.882	0.944	0.959	0.584	–	0.321	0.394	0.249	0.414	0.449	0.409	0.372	0.264	0.161
NCI-H1993	0.714	0.656	0.744	0.716	0.9	0.85	0.766	0.808	0.702	0.687	1.01	1.02	1.12	0.882	0.955	0.943	0.868	0.782	0.801	0.68
PC-3 [JPC-3]	0.916	1.12	–	0.798	0.651	1.02	1	0.986	0.925	0.853	0.95	0.932	–	0.741	0.69	1.02	0.962	0.922	0.933	0.901
NCI-H441	–	0.7	1.05	0.982	1.06	0.872	1.14	0.79	0.904	0.732	–	0.575	0.387	0.356	0.374	0.789	0.756	0.809	0.416	0.426
NCI-H322M	0.569	0.641	0.649	0.464	0.566	1.02	0.857	0.944	0.984	0.88	0.686	0.695	0.739	0.672	0.654	0.917	0.925	0.946	0.825	0.776
NCI-H1651	0.467	0.519	0.495	0.473	0.587	0.925	0.897	0.765	0.577	0.495	0.151	0.159	0.144	0.16	0.146	0.916	0.86	0.84	0.8	0.733
EKVX	–	0.69	0.795	0.609	0.674	0.71	0.872	0.951	0.615	0.775	–	0.729	0.769	0.71	0.683	0.793	1.06	0.941	0.654	0.671
CAL-12T	0.659	0.718	0.638	0.646	0.659	1.3	1.14	1.11	0.992	0.974	0.612	0.661	0.61	0.611	0.744	0.801	0.569	0.694	0.695	0.459
NCI-H358	0.619	0.449	0.461	0.519	0.532	0.83	0.912	0.671	0.685	0.696	0.394	0.537	0.569	0.412	0.424	0.682	0.586	0.525	0.54	0.43
PC-14	0.31	0.343	0.383	0.304	0.392	1.02	1.01	0.83	0.973	1.06	0.233	0.247	0.259	0.225	0.222	0.925	0.99	0.841	0.863	0.915
NCI-H2228	–	–	–	–	–	0.933	0.791	0.777	0.688	0.51	0.399	0.344	0.483	0.802	0.578	0.542	0.418	0.506	0.42	0.262

Cell Line	relative viability (Metformin + AZD7762; first compound 10 µM)	relative viability (Metformin + AZD7762; first compound 31.62 µM)	relative viability (Metformin + AZD7762; first compound 100 µM)	relative viability (Metformin + AZD7762; first compound 316.23 µM)	relative viability (Metformin + AZD7762; first compound 1000 µM)	relative viability (Apatinib + Foretinib; first compound 0.08 µM)	relative viability (Apatinib + Foretinib; first compound 0.253 µM)	relative viability (Apatinib + Foretinib; first compound 0.8 µM)	relative viability (Apatinib + Foretinib; first compound 2.53 µM)	relative viability (Apatinib + Foretinib; first compound 8 µM)	relative viability (Metformin + Olaparib; first compound 10 µM)	relative viability (Metformin + Olaparib; first compound 31.62 µM)	relative viability (Metformin + Olaparib; first compound 100 µM)	relative viability (Metformin + Olaparib; first compound 316.23 µM)	relative viability (Metformin + Olaparib; first compound 1000 µM)	relative viability (Apatinib + Crizotinib; first compound 0.08 µM)	relative viability (Apatinib + Crizotinib; first compound 0.253 µM)	relative viability (Apatinib + Crizotinib; first compound 0.8 µM)	relative viability (Apatinib + Crizotinib; first compound 2.53 µM)	relative viability (Apatinib + Crizotinib; first compound 8 µM)
EBC-1	–	–	–	–	–	0.111	0.0844	0.0979	0.0995	0.1	0.68	0.733	0.73	0.728	0.721	0.211	0.185	0.178	0.211	0.208
NCI-H520	–	–	–	–	–	0.865	0.72	0.844	0.558	0.651	0.276	0.264	0.276	0.274	0.259	0.912	0.701	0.737	0.614	0.45
SK-LU-1	–	–	–	–	–	1.01	0.857	0.859	0.719	0.732	0.356	0.375	0.502	0.389	0.398	1.04	0.806	0.761	0.785	0.566
NCI-H1648	–	0.575	0.681	0.574	0.663	–	–	–	–	–	–	1.14	0.502	1.07	1.04	–	–	–	–	–
NCI-H522	1.02	0.986	0.97	0.985	1.07	–	–	–	–	–	0.721	0.752	0.745	0.652	0.698	–	–	–	–	–
NCI-H1650	–	–	–	–	–	–	1.07	0.959	0.923	0.81	0.687	0.625	0.763	0.682	0.59	1.13	1.03	0.9	0.92	0.842
NCI-H1792	0.598	0.667	0.539	0.56	0.796	–	–	–	–	–	0.463	0.39	0.498	0.358	0.402	0.97	0.988	0.949	0.96	0.832
COR-L23	–	–	–	–	–	1.03	0.952	0.926	0.903	0.836	0.256	0.3	0.336	0.231	0.254	0.627	0.647	0.648	0.52	0.565
COR-L 105	–	–	–	–	–	1.36	1.11	1.23	0.768	0.849	0.804	0.625	0.645	0.725	0.694	0.871	0.696	0.796	0.727	0.586
Calu-6	–	–	–	–	–	0.994	0.915	0.799	0.766	0.791	0.459	0.416	0.421	0.48	0.467	0.789	0.855	0.726	0.599	0.594
SW 900	0.666	0.624	–	0.537	0.761	1.06	0.921	0.822	0.584	0.605	0.853	0.945	–	0.892	0.917	–	–	–	–	–
NCI-H2342	–	0.441	0.366	0.46	0.386	1.01	1.05	1.02	0.983	0.936	–	0.375	0.372	0.418	0.358	–	–	–	–	–
NCI-H2009	–	–	–	–	–	1.39	1.18	1.17	1.07	0.853	0.612	0.69	0.604	0.568	0.705	1.05	1.1	1.02	0.814	0.698
UMC-11	–	–	–	–	–	1.04	1.09	0.935	0.939	1.03	0.337	0.269	0.31	0.332	0.276	0.619	0.57	0.617	0.519	0.493
SW 1573	–	–	–	–	–	0.981	1.07	0.963	0.854	0.821	0.441	0.468	0.471	0.381	0.352	0.946	0.867	0.748	0.74	0.58
NCI-H1793	0.535	0.47	0.784	0.396	0.505	0.761	0.585	0.507	0.601	0.475	0.702	1.1	0.813	0.781	0.901	–	–	–	–	–
NCI-H1623	–	–	–	–	–	0.912	0.826	0.844	0.802	0.777	–	–	–	–	–	–	–	–	–	–
NCI-H1563	–	–	–	–	–	0.897	0.996	0.884	0.812	0.897	–	–	–	–	–	0.824	0.848	0.864	0.851	0.797
IA-LM	–	–	–	–	–	1.33	1.13	1.09	0.703	0.38	0.864	0.94	0.85	0.658	0.917	0.857	0.615	0.697	0.694	0.192
HCC-44	–	1	1.01	0.994	1.02	–	–	–	–	–	–	0.893	0.822	0.947	0.929	0.807	0.858	0.779	0.716	0.705
